Read-outs that look alike come from different tables or passages of the source.

Our source for the Ki values is patent publication US6727264B1 (Synaptic Pharmaceutical Corporation, priority 2001, dated 2004).

This experiment addresses rat MCH-1 (Rattus norvegicus, UniProt P97639). Description: Radioligand binding assay at cloned rat MCH1 receptor ([3H] Compound A). The arrangement: host or cells: Peak rapid 293 (Peakr293) cells, transient calcium phosphate transfection, membranes. Particulars: cloned rat MCH1 receptor, 0.08 nM [3H] Compound A, read-out: Ki (nM) rMCH1.

rat MCH-1, sequence (P97639 whole entry): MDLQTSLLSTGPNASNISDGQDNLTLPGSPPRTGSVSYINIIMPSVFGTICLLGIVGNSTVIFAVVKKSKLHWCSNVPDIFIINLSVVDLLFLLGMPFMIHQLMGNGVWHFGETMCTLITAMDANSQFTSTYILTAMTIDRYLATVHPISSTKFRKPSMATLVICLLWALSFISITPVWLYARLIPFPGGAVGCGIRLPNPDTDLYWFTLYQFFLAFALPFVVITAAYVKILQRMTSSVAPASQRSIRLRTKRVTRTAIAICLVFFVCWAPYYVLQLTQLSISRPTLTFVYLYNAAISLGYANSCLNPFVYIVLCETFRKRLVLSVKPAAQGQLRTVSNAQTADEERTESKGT

In the case of `CC(C)C(=O)Nc1cccc(C2CCN(CCCc3c(-c4ccc(Br)cc4)[nH]c4ccccc34)CC2)c1` [Example 756], the inhibitory constant (Ki) (Peakr293 cell membranes) came out at 4.2 nM. On to `CC(C)C(=O)Nc1cccc(C2CCN(CCCCCSc3ccccc3)CC2)c1` [Example 586], for which the Ki (Peakr293 cell membranes) is 42.9 nM. On the same count and under the same terms, in the case of `CC(C)C(=O)Nc1cccc(C2CCN(CCCCCC(Oc3ccc(Br)cc3)c3ccc(Cl)cc3)CC2)c1` (stereo not shown) [Example 905] it was 5.9 nM. As for `COc1cccc(OCCCCN2CCC(c3cccc(NC(=O)C(C)C)c3)CC2)c1` [Example 376], where the note is “membranes from Peakr293 cells”, the Ki was found to be 888 nM. For `CC(C)C(=O)Nc1cccc(C2CCN(CCCc3ccncc3)CC2)c1` [Example 805], the Ki (Peakr293 cell membranes) was 904 nM. On the same count and under the same terms, for `COc1ccc(CCCCN2CCC(c3cccc(NC(=O)C(C)C)c3)CC2)cc1` [Example 797] the value was 42.4 nM.

Take `CC(C)C(=O)Nc1cccc(C2CCN(CCCc3c(-c4cccc(Cl)c4)[nH]c4ccc(OC(F)(F)F)cc34)CC2)c1` [Example 723]: where the note is “Peakr293 cell membranes”, the inhibitory constant (Ki) was 9.2 nM. The same measure, in the same setting: for `CC(C)C(=O)Nc1cccc(C2CCN(CCCc3c(-c4cccc(Br)c4)n(C)c4ccccc34)CC2)c1` [Example 758] the value was 110 nM.

With `CC(C)C(=O)Nc1cccc(C2CCN(CC[C@H](NC(=O)c3cccc4ccccc34)c3ccccc3)CC2)c1` [Example 311], the Ki (membranes from Peakr293 cells) came out at 43 nM. On to `CC(C)C(=O)Nc1cccc(C2CCN(CCc3c[nH]c4ccc(OC(F)(F)F)cc34)CC2)c1` [Example 412], for which the inhibition constant (Ki) (Peakr293 cell membranes) came out at 27 nM. As to `CCCC(=O)Nc1ccc(C2CCN(Cc3cn(-c4ccc(C)cc4)c4ccccc34)CC2)cc1` [Example 423], the inhibition constant Ki (Peakr293 cell membranes) is 405 nM. Turning to `CC(C)C(=O)Nc1cccc(C2CCN(CCCCc3c(-c4ccccc4)n(-c4ccccc4)c4ccccc34)CC2)c1` [Example 392], for the setting “membranes from Peakr293 cells”, the inhibition constant (Ki) was 18.1 nM.

Regarding `CC(C)C(=O)Nc1cccc(C2CCN(CCCOc3ccc(Cl)cc3)CC2)c1` [Example 345], the Ki (membranes from Peakr293 cells) was 15.4 nM. For `CC(C)C(=O)Nc1cccc(C2CCN(Cc3ccc4c(ccn4-c4cccc(C(F)(F)F)c4)c3)CC2)c1` [Example 850], under “Peakr293 cell membranes”, the inhibition constant Ki amounted to 9.5 nM. Consider `CC(C)C(=O)Nc1cccc(C2CCN(CCCCC(=O)c3cccc(C(F)(F)F)c3)CC2)c1` [Example 670], for which the Ki (Peakr293 cell membranes) came to 57.6 nM. On to `CC(C)C(=O)Nc1cccc(C2CCN(CCCCCCn3ccc4ccccc43)CC2)c1` [Example 96], for which the Ki (membranes from Peakr293 cells) is 15.9 nM. As to `CC(C)C(=O)Nc1cccc(C2CCN(CCCc3c(-c4ccc(F)cc4)[nH]c4c3ccc3ccccc34)CC2)c1` [Example 714], the inhibition constant (Ki) (Peakr293 cell membranes) is 4.7 nM.

On to `O=C(CCCCN1CCC(c2cccc(NC(=O)C3CC3)c2)CC1)c1ccccc1Cl` [Example 567], for which, where the note is “Peakr293 cell membranes”, the inhibition constant (Ki) was found to be 92.2 nM. For the compound `CCC(=O)Nc1cccc(C2CCN(CCCC(=O)c3ccc(C(C)(C)C)cc3)CC2)c1` [Example 534], the Ki (Peakr293 cell membranes) was 155 nM. For `CC(=O)c1ccccc1OC(CCN1CCC(c2cccc(NC(=O)C(C)C)c2)CC1)c1ccc(Cl)cc1` (stereo not shown) [Example 169], the Ki (membranes from Peakr293 cells) came out at 7.7 nM. Take `CC(C)C(=O)Nc1cccc(C2CCN(Cc3c(-c4ccccc4)n(C)c4ccccc34)CC2)c1` [Example 428]: the Ki (Peakr293 cell membranes) came to 132 nM. Turning to `COc1ccccc1-n1ccc2cc(CN3CCC(c4cccc(NC(=O)C(C)C)c4)CC3)ccc21` [Example 841], the Ki (Peakr293 cell membranes) worked out at 25 nM. Take `CC(C)C(=O)Nc1cccc(C2CCN(Cc3c[nH]c4cc(C(F)(F)F)ccc34)CC2)c1` [Example 499]: for the setting “Peakr293 cell membranes”, the Ki is 11.9 nM.

Consider `CC(=O)c1cccc(OCCCN2CCC(c3cccc(NC(=O)C4CC4)c3)CC2)c1` [Example 342], for which, for the setting “membranes from Peakr293 cells”, the Ki came to 183 nM. Turning to `Cc1onc(-c2c(Cl)cccc2Cl)c1C(=O)OCCCCCCN1CCC(c2cccc(NC(=O)C(C)C)c2)CC1` [Example 297, 6-{4-[3-(ISOBUTYRYLAMINO)PHENYL]-1-PIPERIDINYL}HEXYL 3-(2,6-DICHLOROPHENYL)-5-METHYL-4-ISOXAZOLECARBOXYLATE], the Ki (membranes from Peakr293 cells) worked out at 11.9 nM. Turning to `O=C(CCCCN1CCC(c2cccc(NC(=O)C3CC3)c2)CC1)c1cccc(Cl)c1` [Example 564], the inhibitory constant (Ki) (Peakr293 cell membranes) was 28.9 nM.

Turning to `CCn1c2ccccc2c2cc(CN3CCC(c4ccc(NC(=O)C(C)C)cc4)CC3)ccc21` [Example 98], the Ki (membranes from Peakr293 cells) worked out at 37.9 nM. With `Cc1cccc(-n2ccc3c(CN4CCC(c5cccc(NC(=O)C(C)C)c5)CC4)cccc32)c1` [Example 859], the Ki (Peakr293 cell membranes) was found to be 321 nM. The same measure, in the same setting: for `CC(C)C(=O)Nc1cccc(C2CCN(CCCCC(=O)c3ccccc3F)CC2)c1` [Example 671] the value was 88.6 nM. Regarding `CC(C)C(=O)Nc1cccc(C2CCN(Cc3ccc(-c4cc(C(F)(F)F)n(C)n4)s3)CC2)c1` [Example 238], where the note is “membranes from Peakr293 cells”, the inhibition constant Ki was found to be 65.9 nM. As to `COc1ccc(C(CCN2CCC(c3cccc(NC(=O)C(C)C)c3)CC2)Oc2ccc(F)cc2)cc1` (stereo not shown) [Example 184], the Ki (membranes from Peakr293 cells) was found to be 105 nM. As for `CC(C)C(=O)Nc1cccc(C2CCN(CCCC(Oc3ccc(Cl)cc3)c3ccc(Cl)cc3)CC2)c1` (stereo not shown) [Example 385], the inhibition constant (Ki) (membranes from Peakr293 cells) was determined as 325 nM.

With `Cc1cccc2c(CCCN3CCC(c4cccc(NC(=O)C(C)C)c4)CC3)c(-c3ccccc3Cl)[nH]c12` [Example 733], the Ki (Peakr293 cell membranes) came out at 10 nM. Take `CC(C)C(=O)Nc1cccc(C2CCN(CCC/C(=N\Nc3ccccn3)c3ccccc3)CC2)c1` [Example 94]: the Ki (membranes from Peakr293 cells) was 2.3 nM. Take `CC(C)C(=O)Nc1cccc(C2CCN(Cc3ccc(Oc4ccc(F)c(F)c4)cc3)CC2)n1` [Example 266]: under “membranes from Peakr293 cells”, the Ki was 6.4 nM. In the case of `CC(C)C(=O)Nc1cccc(C2CCN(Cc3c[nH]c4cc(OCc5ccccc5)ccc34)CC2)c1` [Example 496], the Ki (Peakr293 cell membranes) stood at 288 nM.

As for `CCC(=O)Nc1cccc(C2CCN(Cc3c[nH]c4c([N+](=O)[O-])cccc34)CC2)c1` [Example 515], the Ki (Peakr293 cell membranes) was 296 nM. Still for that read-out and setting: in the case of `CC(C)C(=O)Nc1cccc(C2CCN(CCCc3c(-c4ccc(C(F)(F)F)cc4)[nH]c4ccccc34)CC2)c1` [Example 684] it was 5.4 nM.

Take `CCC(=O)Nc1ccc(C2CCN(CCCCCn3ccc4ccccc43)CC2)cc1` [Example 827]: the inhibition constant Ki (Peakr293 cell membranes) is 215 nM. Turning to `CC(C)C(=O)Nc1cccc(C2CCN(CCCCCC(Oc3ccc(F)cc3)c3ccccc3F)CC2)c1` (stereo not shown) [Example 890], the Ki (Peakr293 cell membranes) was determined as 11.1 nM. For the compound `COc1ccc(OC(CCCCN2CCC(c3cccc(NC(=O)C(C)C)c3)CC2)c2ccccc2)cc1` (stereo not shown) [Example 928], the inhibition constant Ki (Peakr293 cell membranes) stood at 14.9 nM. Same read-out and setting: in the case of `Cc1ccc(S(=O)(=O)N[C@@H](CCN2CCC(c3cccc(NC(=O)C(C)C)c3)CC2)c2ccccc2)cc1` [Example 595] it was 36.3 nM.

`CC(C)C(=O)Nc1cccc(C2CCN(C[C@H](Oc3cccc(Cl)c3)c3ccccc3)CC2)c1` [Example 339]: the inhibition constant Ki (membranes from Peakr293 cells) turned out to be 890 nM. With `CCC(=O)Nc1cccc(C2CCN(Cc3cn(-c4cccc(Cl)c4)c4ccccc34)CC2)c1` [Example 456], for the setting “Peakr293 cell membranes”, the inhibition constant (Ki) was found to be 28 nM. In the case of `CC(C)C(=O)Nc1cccc(C2CCN(CCCCC(=O)c3ccc(Br)cc3)CC2)c1` [Example 667], under “Peakr293 cell membranes”, the Ki came out at 43.9 nM. Take `Cc1ccc(OC(CCN2CCC(c3cccc(NC(=O)C(C)C)c3)CC2)c2ccc(Br)cc2)c(Cl)c1` (stereo not shown) [Example 150]: the inhibitory constant (Ki) (membranes from Peakr293 cells) amounted to 8 nM.

For `CC(C)C(=O)Nc1cccc(C2CCN(Cc3cn(-c4ccccc4)c4cc(C(F)(F)F)ccc34)CC2)c1` [Example 508], where the note is “Peakr293 cell membranes”, the inhibition constant Ki is 8.5 nM. For `CC(C)C(=O)Nc1cccc(C2CCN(Cc3cccc4c3ccn4-c3ccc(Cl)cc3)CC2)c1` [Example 872], for the setting “Peakr293 cell membranes”, the inhibition constant Ki came to 306 nM.

`CC(C)C(=O)Nc1cccc(C2CCN(Cc3c[nH]c4c([N+](=O)[O-])cccc34)CC2)c1` [Example 513]: the inhibition constant Ki (Peakr293 cell membranes) is 179 nM.

One may read the Ki as the dissociation constant of the complex between target and ligand, obtained from inhibition or displacement.
